Laboratory results: PubChem BioAssay AID540268 (Broad Institute, 2011)

Test: reduced viability of parasite-Hsp90 expressing yeast – ATP luminescence, 48 h, cherry-picked samples, anti-malarial Hsp90 inhibitor project, dose response (AID 540268)
Conditions: yeast expressing the parasite Hsp90, ATP luminescence
`C/C(=N\NC(=O)c1cc2ccccc2cc1O)c1ccccn1` gave an AC50 of 8.31 µM.
In the case of `CCCCC(=O)NC(c1ccccc1)c1ccc2cccnc2c1O` (stereo not drawn), the AC50 is reported as 23.6 µM.
`CC(C)(C)c1cc(C(c2cccnc2)N2CCN(CCO)CC2)cc(C(C)(C)C)c1O` (stereo not drawn) showed an AC50 of 25 µM.
`Cc1cccc(N=Nc2ccc(O)c3ncccc23)c1` showed an AC50 of 2.25 µM.
In the case of `O=S(=O)(/C=C/c1ccccc1)NC1CCCCCCC1`, the AC50 is reported as 1.18 µM.
With `CCN1CCN(C(c2ccc(C(F)(F)F)cc2)c2ccc3cccnc3c2O)CC1` (stereo not drawn) the AC50 was 1.54 µM.
Compound `O=C(O)c1cn(-c2ccc(N3CCCC3)c(F)c2)c2c(F)c(F)c(F)cc2c1=O` has an AC50 of 4.36 µM.
With `O=[N+]([O-])c1cc(-n2cnnn2)ccc1N1CCC(Cc2ccccc2)CC1` the AC50 was 4.23 µM.
Work on `Cc1ccc(CNC(=O)c2ccc(Cn3nc(C)c(Cl)c3C)o2)cc1` yielded an AC50 of 7.23 µM.
Compound `CSc1nc2cc(Oc3cccc(Cl)c3Cl)c(Cl)cc2[nH]1` has an AC50 of 6.41 µM.
For `CC(=O)N1N=C(c2ccccc2)OC1c1ccc([N+](=O)[O-])s1` (stereo not drawn), the AC50 was 8.65 µM.
`COc1ccc(N=Cc2cc(Cc3ccccc3Cl)cc([N+](=O)[O-])c2O)cc1OC` showed an AC50 of 1.5 µM.
In the case of `COC(=O)/C=C\C(=O)Nc1cccc([N+](=O)[O-])c1`, the AC50 is reported as 2.43 µM.
Work on `CCOC(=O)c1ccc(N2C(=O)C=CC2=O)cc1` yielded an AC50 of less than 0.195 µM.
`O=C1C=CC(=Nc2ccc(F)cc2)O1` gave an AC50 of 1.24 µM.
With `O=C(C#Cc1ccccc1)c1ccc([N+](=O)[O-])cc1` the AC50 was 2.1 µM.
Work on `CC(=NNC(=S)Nc1cccc(Cl)c1)c1ccccn1` yielded an AC50 of 16.6 µM.
With `Cc1cc(N2CCN(C(=O)c3ccco3)CC2)n2ncc(-c3ccccc3)c2n1` the AC50 was 2.31 µM.
With `COc1ccc(C(=O)N/N=C/c2sc3ccccc3c2O)cc1` the AC50 was 2.35 µM.
`Cc1[nH]n(-c2ccc([N+](=O)[O-])cc2)c(=O)c1C=NCCN1CCN(C(=O)c2cccc(F)c2)CC1` showed an AC50 of 5.83 µM.
Compound `COc1ccc(-c2cc(C(=O)N3CCN(c4ccccc4F)CC3)c3ccccc3n2)c(OC)c1` has an AC50 of 4.09 µM.
`CCCCCCC(=O)N(O)C1CC(=O)N(c2ccc(F)cc2)C1=O` (stereo not drawn) gave an AC50 of 1.32 µM.
For `COc1ccc2sc(-c3ccccc3OC)c(-c3ccc(O)cc3)c2c1`, the AC50 was 8.46 µM.
With `OCCCn1c(C2CCCN2c2nc(-c3ccc(F)cc3)cs2)nc2cc(Cl)c(Cl)cc21` (stereo not drawn) the AC50 was 5.62 µM.
For `O=C1C=CC(=O)N1c1ccc(Nc2ccccc2)cc1`, the AC50 was less than 0.195 µM.
Compound `CCCC(=O)NC(c1ccc(OC)c(OC)c1)c1cc(Cl)c2cccnc2c1O` (stereo not drawn) has an AC50 of 6.12 µM.
In the case of `CC(=O)NC(c1ccccc1)c1cc(Cl)c2cccnc2c1O` (stereo not drawn), the AC50 is reported as 7.28 µM.
Work on `N/C(=N\OC(=O)c1ccc2ccccc2c1)c1ccccc1Cl` yielded an AC50 of 4.46 µM.
Work on `O=C(/C=C/c1ccc(F)cc1)NC(=S)NNC(=O)c1cnccn1` yielded an AC50 of 2.71 µM.
Compound `O=[N+]([O-])c1cnc(Sc2ccncn2)s1` has an AC50 of 3.02 µM.
For `C=C(C)COc1ccc(-c2[nH]ncc2Oc2cccc(OC)c2)c(O)c1`, the AC50 was 8.1 µM.
`CCN1C(=O)/C(=C\C(=O)c2cccs2)c2cc(Br)ccc21` gave an AC50 of 4.28 µM.
`CCC(=O)NC(c1cccs1)c1ccc2cccnc2c1O` (stereo not drawn) gave an AC50 of 7.69 µM.
With `O=[N+]([O-])c1ccc(S(=O)(=O)c2cccc(C(F)(F)F)c2)nc1` the AC50 was 2.52 µM.
With `O=C(Nc1ccc(F)cc1)c1nc(S(=O)(=O)Cc2ccccc2)ncc1Cl` the AC50 was 5.68 µM.
With `Cc1cc(NC(c2ccc(Cl)cc2)c2ccc3cccnc3c2O)no1` (stereo not drawn) the AC50 was 4.2 µM.
With `CCCCCCCCCCCCCC(=O)NO` the AC50 was less than 0.195 µM.
With `CC(=NNC(=S)N1CC2CCC(CC2)C1)c1cnccn1` the AC50 was less than 0.195 µM.
In the case of `O=C1OCC(CO)(CO)N=C1NNc1ccc(Cl)c(Cl)c1`, the AC50 is reported as 2.2 µM.
Work on `CCCOc1ccc2ccccc2c1/C=C1\SC(=O)NC1=O` yielded an AC50 of 7.76 µM.
`OCCOCCn1c(C2CCCN2c2nc(-c3ccc(F)cc3)cs2)nc2cc(Cl)c(Cl)cc21` (stereo not drawn) showed an AC50 of 6 µM.
In the case of `Cc1ccc(CSc2nc3ccsc3c(=O)n2Cc2ccccn2)cc1`, the AC50 is reported as 9.62 µM.
For `CCCCCCCCCC[N+](C)(C)CC/C=C1/c2ccccc2Sc2ccc(Cl)cc21`, the AC50 was 6.32 µM.
`CCN1CCCC1CN(Cc1cc2ccc(C)cc2[nH]c1=O)C(=S)Nc1ccc(F)cc1` (stereo not drawn) showed an AC50 of 3.2 µM.
`Cc1cccc(Nc2nc(N)c([N+](=O)[O-])c(N3CC(C)CC(C)C3)n2)c1` (stereo not drawn) showed an AC50 of 3.22 µM.
`O=[N+]([O-])c1cc2no[n+]([O-])c2cc1N1CCCCC1` gave an AC50 of 0.877 µM.
`Cc1nnc(C)n1/N=C/c1cc(Br)cc(Br)c1O` gave an AC50 of 4.35 µM.
`NC(=Nc1nc(-c2ccccn2)cc2ccccc12)c1ccccn1` showed an AC50 of 3.78 µM.
`Cc1cc(C)c2c(N=NN(C)C)[nH]nc2n1` gave an AC50 of 3.92 µM.
For `O=[N+]([O-])c1ccc2c(c1)-c1ccccc1C2=NO`, the AC50 was 2.72 µM.
`O=C(CC(n1cncn1)C(Cl)(Cl)Cl)c1ccc([N+](=O)[O-])cc1` (stereo not drawn) showed an AC50 of 4.42 µM.
In the case of `COc1cc(SC)ccc1C(=O)Nc1nc2ccccc2[nH]1`, the AC50 is reported as 1.96 µM.
`Oc1ccc(Cl)cc1/C=C/c1ccc2cccc(O)c2n1` showed an AC50 of 2.66 µM.
`Cc1ccc(NC(=O)c2nc(S(=O)(=O)Cc3ccccc3)ncc2Cl)cc1` showed an AC50 of 4.12 µM.
`CC1=CC(=O)C=C(C)C1=NOS(=O)(=O)c1ccccc1` gave an AC50 of 1.4 µM.
Work on `O=C1CC(N2CCC(c3nc4ccccc4o3)CC2)C(=O)N1c1ccc(Cl)c(C(F)(F)F)c1` (stereo not drawn) yielded an AC50 of 4.08 µM.
Compound `C=CCc1c(C)c(C#N)c2nc3ccccc3n2c1NCCN(C)C` has an AC50 of 4.58 µM.
Work on `CC[C@@H](C)[C@H](NC(=O)OC(C)(C)C)c1nnc(S(=O)(=O)Cc2cc(C)ccc2C)o1` yielded an AC50 of 5.46 µM.
